In article PMC5997768 (2018):

Test system: rats with CCI
Details: rat, in vivo, iv

## C=CC[N+]1(C)CC[C@]23c4c5ccc(O)c4O[C@H]2C(=O)CC[C@@]3(O)[C@H]1C5 (some centres unmarked) [NLXM, naloxone methiodide]
  Effect on FF3-induced analgesia (PPT) in ipsilateral limbs: abolished
  Effect on PPT in contralateral paws: No changes were observed
